The values that follow come from the PolyMetriX glass transition set.

With `*C#C/C(COS(=O)(=O)c1ccc(C)cc1)=C(/*)COS(=O)(=O)c1ccc(C)cc1` (repeat unit), the glass transition temperature was -73.00 °C. Regarding `*C(=O)c1ccc(Oc2ccc(C3(c4ccc(Oc5ccc(*)s5)cc4)c4ccccc4-c4ccccc43)cc2)cc1` (repeat unit), the glass transition temperature is 195.00 °C. Next, `*OP(=O)(Oc1ccc(Br)cc1)Oc1c(Br)cc(C(c2cc(Br)c(*)c(Br)c2)(C(F)(F)F)C(F)(F)F)cc1Br` (repeat unit): 152.00 °C; `*OP(=O)(Oc1ccc([N+](=O)[O-])cc1)Oc1c(Br)cc(C(c2cc(Br)c(*)c(Br)c2)(C(F)(F)F)C(F)(F)F)cc1Br` (repeat unit): 154.00 °C; `*OP(=O)(Oc1ccccc1)Oc1c(Br)cc(C(c2cc(Br)c(*)c(Br)c2)(C(F)(F)F)C(F)(F)F)cc1Br` (repeat unit): 140.00 °C. Under `*O[Si](*)(C)CCCCCCCCCCC(=O)OCCC(F)(F)C(F)(F)C(F)(F)C(F)(F)C(F)(F)C(F)(F)F` (repeat unit) stands -69.00 °C; under `*O[Si](*)(C)CCCCCCCCCCC(=O)Oc1ccc(-c2ccc(OC(=O)c3ccc(OCC)cc3)cc2)cc1` (repeat unit), 103.40 °C.

Consider `*O[Si](*)(C)CCCCCCCCCCC(=O)Oc1ccc(-c2ccc(OC(=O)c3ccc(OCCCCCCC)cc3)cc2)cc1` (repeat unit), for which the glass transition temperature was determined as 61.10 °C. Under `*O[Si](*)(C)CCCCCCCCCCC(=O)Oc1ccc(C(=O)Oc2ccc(-c3ccc(OC(=O)CCCCC(=O)OC4CC(C)CCC4C(C)C)cc3)cc2)cc1` (repeat unit) stands 32.40 °C; under `*O[Si](*)(C)CCCCCCCCCCC(=O)Oc1ccc(OC(=O)c2ccc(OCC(C)CC)cc2)cc1` (repeat unit), 13.40 °C; under `*O[Si](*)(C)CCCCCCCCCCCOc1ccc(-c2ccc(C(=O)Oc3ccc(C(=O)OC(C)C(=O)OC(C)C(=O)OCC(C)CC)cc3)cc2)cc1` (repeat unit), 20.00 °C. Next, `*O[Si](*)(C)CCCCCCCCCCCOc1ccc(/C=C/c2ccc(C#N)cc2)cc1` (repeat unit): -55.00 °C.

On to `*O[Si](*)(C)CCCCCCCCCCCOc1ccc(/C=C/c2ccc(OC)cc2)cc1` (repeat unit), for which the glass transition temperature was found to be 55.00 °C. Under `*O[Si](*)(C)CCCCCCOc1ccc(-c2ccc(C#N)cc2)cc1` (repeat unit) stands 10.00 °C; under `*O[Si](*)(C)CCCCCCOc1ccc(C(=O)Oc2ccc(C(=O)OCC(C)CC)cc2)cc1` (repeat unit), -9.00 °C; under `*O[Si](*)(C)CCCCCOc1ccc(/C=C/c2ccc(OC)cc2)cc1` (repeat unit), 52.00 °C. Under `*O[Si](*)(C)CCCCCn1c2ccccc2c2ccccc21` (repeat unit) stands 7.00 °C. Take `*O[Si](*)(C)CCCOC(=O)c1cc(OC(=O)c2ccc(OCCOCCOCCOCCOCCOCCOC)cc2)ccc1OC(=O)c1ccc(OCCOCCOCCOCCOCCOCCOC)cc1` (repeat unit): the glass transition temperature was -46.00 °C. Under `*O[Si](*)(C)CCCOCCOCCOC` (repeat unit) stands -90.10 °C. Turning to `*O[Si](*)(C)CCCOCCOCCOCCOC` (repeat unit), the glass transition temperature is -64.21 °C.

Take `*O[Si](*)(C)CCCOCCOCCOc1ccc(COc2ccc3cc(C#N)ccc3c2)cc1` (repeat unit): the glass transition temperature came out at 30.00 °C. Next, `*O[Si](*)(C)CCCOc1ccc(C(=O)OCCOc2ccc(C(=O)OC3CCC4(C)C(=CCC5C4CCC4(C)C(C(C)CCCC(C)C)CCC54)C3)cc2)cc1` (repeat unit): 42.00 °C; `*O[Si](*)(C)CCCOc1ccc(C(=O)Oc2ccc(-c3ccc(OC(=O)c4cc(OCCCCCCCCCCCC)c(OCCCCCCCCCCCC)c(OCCCCCCCCCCCC)c4)cc3)cc2)cc1` (repeat unit): 48.00 °C; `*O[Si](*)(C)CCCOc1ccc(C(=O)Oc2ccc(OC(=O)CCCCC(=O)OC3CC(C)CCC3C(C)C)cc2)cc1` (repeat unit): 45.30 °C. With `*O[Si](*)(C)CCc1cc(-c2nnc(-c3ccc(OCCCCCCCCCCCC)cc3)o2)ccc1-c1nnc(-c2ccc(OCCCCCCCCCCCC)cc2)o1` (repeat unit), the glass transition temperature turned out to be 156.00 °C. `*O[Si](*)(C)CCc1cc(C(=O)Oc2ccc(OCCCCCCCCCCCC)cc2)ccc1-c1ccc(C(=O)Oc2ccc(OCCCCCCCCCCCC)cc2)cc1` (repeat unit): the glass transition temperature was 76.00 °C. `*O[Si](*)(C)OCCCCCCCCCCCOc1ccc(C2COC(c3ccc(OCC(C)CC)cc3)OC2)cc1` (repeat unit): the glass transition temperature was determined as 30.00 °C. Under `*O[Si](*)(C)OCCOCCOCCOC` (repeat unit) stands -120.10 °C; under `*O[Si](*)(C)OCCOCCOCCOCCOCCOCCOCCOCCOC` (repeat unit), -78.00 °C. Under `*O[Si](*)(C)c1c(F)c(F)c(F)c(F)c1F` (repeat unit) stands -25.00 °C; under `*O[Si](*)(C)c1ccccc1` (repeat unit), -28 °C.

For `*O[Si](*)(CC)CC` (repeat unit), the glass transition temperature was -139.00 °C. Next, `*O[Si](*)(CCCOCCOC)CCCOCCOC` (repeat unit): -55.00 °C. Next, `*O[Si](*)(CCCOCCOCCOC)CCCOCCOCCOC` (repeat unit): -63.40 °C; `*O[Si](*)(CCCOCCOCCOCCOCCOCCOC)CCCOCCOCCOCCOCCOCCOC` (repeat unit): -69.70 °C; `*O[Si](*)(c1ccccc1)c1ccc(OC(C)(C)C)cc1` (repeat unit): 56.00 °C.

In turn, `*Oc1c(-c2ccccc2)cc(*)cc1-c1ccccc1-c1ccccc1` (repeat unit) came in with a glass transition temperature of 211.00 °C. Next, `*Oc1c(Br)cc(C(c2cc(Br)c(OC(*)=O)c(Br)c2)(C(F)(F)F)C(F)(F)F)cc1Br` (repeat unit): 206.00 °C. Next, `*Oc1ccc(C(c2ccc(Oc3ccc(C(=O)c4cc(C(=O)c5ccc(*)cc5)cc(C(C)(C)C)c4)cc3)cc2)(C(F)(F)F)C(F)(F)F)cc1` (repeat unit): 181.00 °C. Next, `*Oc1ccc(C2(c3ccc(Oc4ccc(C(=O)C(=O)c5ccc(*)cc5)cc4)cc3)c3ccccc3-c3ccccc32)cc1` (repeat unit): 242.00 °C. `*Oc1ccc(C2(c3ccc(Oc4ccc(C(=O)c5ccc(*)cc5)cc4)cc3)c3ccccc3-c3ccccc32)cc1` (repeat unit): the glass transition temperature amounted to 252.00 °C. Under `*Oc1ccc(C2(c3ccc(Oc4ccc(C(=O)c5ccc(C(=O)c6ccc(*)c(C(F)(F)F)c6)cc5)cc4C(F)(F)F)cc3)c3ccccc3-c3ccccc32)cc1` (repeat unit) stands 229.00 °C; under `*Oc1ccc(C2(c3ccc(Oc4ccc(C(=O)c5ccc(Oc6ccc(C(=O)c7ccc(*)cc7)cc6)cc5)cc4)cc3)c3ccccc3-c3ccccc32)cc1` (repeat unit), 231.00 °C.
